Assay results reported in US9567345B2, “Pharmaceutically active pyrazolo-triazine derivatives” (LEAD DISCOVERY CENTER GMBH, priority 2012, dated 2017).

Tests used:
Assay type in all cases: biochemical
CDK9/Cyclin T1 = CDK9/Cyclin T1 (Homo sapiens, UniProt P50750); experiment: CDK9 Enzymatic Activity Assay (Lance Kinase Activity Assay, FRET); conditions: for IC50: Table 5B, class symbols per IC50 [nM] ranges of b581, read-out: CDK9: Selectivity of CDK7 inhibition over CDK9 inhibition
Method: (§1) This protocol describes how the Lance Kinase Activity Assay was performed to determine IC50 values of compounds of general formula (I) against CDK/Cyclin complexes. The principle behind this enzymatic assay is based upon the phosphorylation of the Ulight-Peptide Substrat. It is detected by using a specific EU-labeled anti-phospho peptide antibody.
(§2) Binding of an inhibitor to the kinase prevents phosphorylation of the Ulight-MBP Substrat, resulting in a loss of FRET.
CDK9 Enzymatic Activity Assay
(§3) The compounds of general formula (I) exemplary summarized in Table 1 were diluted from a 10 mM DMSO stock solution 1:10 in a total volume of 15 μl DMSO. This compound predilution was then serial diluted 1:3 over 8 steps in DMSO and briefly spun down. Each compound solution was now diluted 1:20 in Enzymatic Buffer (HEPES: 50 mM, pH: 7.5; MgCl2: 10 mM; EGTA: 1 mM; DTT: 2 mM; Tween-20: 0.01%), mixed thoroughly and spun down.
(§4) For positive controls, 2 μl of DMSO working solution were mixed with 6 μl CDK9/cyclin T1/substrate working solution and 2 μl ATP working solution. Positive and negative controls were calculated from at least 8 different wells. The 384 well plates were mixed in a Teleshaker plate mixer (Beckman Coulter, Brea, Calif., USA) at 2000 rpm for 40 sec, and incubated for 1 h at room temperature before addition of 10 μl LANCE Detection Buffer (1×; EDTA: […]; Eu-Anti-P-MBP: 4 nM) per well. Plates were mixed in a Teleshaker plate mixer (Beckman Coulter, Brea, Calif., USA) at 2000 rpm for 40 sec, followed by incubation with Detection Buffer for 1 h, and reading. […] IC50 values were determined from the sigmoidal dose response curves with the software Quattro Workflow (Quattro GmbH, Munich, Germany).

CDK7/CycH/Mat1 = CDK7/CycH/Mat1 (Homo sapiens, UniProt P50613); experiment: CDK7 Enzymatic Activity Assay (Lance Kinase Activity Assay, FRET); conditions: CDK7/CycH/Mat1, 25 μM ATP final; class ranges; read-out: CDK7: IC50 [nM] for CDK7 inhibition
Method: as §1, §2
CDK7 Enzymatic Activity Assay
as §3
as §4, with “CDK7/CycH/Mat1/substrate” for “CDK9/cyclin T1/substrate”

CDK2/CycA = target: T1, CDK2/CycA (Homo sapiens, UniProt P24941); experiment: CDK2 Enzymatic Activity Assay (Lance Kinase Activity Assay, FRET); conditions: for IC50: Table 5B, class symbols per IC50 [nM] ranges of b581, read-out: CDK2: Selectivity of CDK7 inhibition over CDK2 inhibition
T1 construct: purchased Proqinase
Method: as §1, §2
CDK2 Enzymatic Activity Assay
as §3
as §4, with “CDK2/CycA/substrate” for “CDK9/cyclin T1/substrate”, “(EDTA:” for “(1×; EDTA:”

CDK9/Cyclin T1, sequence (P50750 whole entry): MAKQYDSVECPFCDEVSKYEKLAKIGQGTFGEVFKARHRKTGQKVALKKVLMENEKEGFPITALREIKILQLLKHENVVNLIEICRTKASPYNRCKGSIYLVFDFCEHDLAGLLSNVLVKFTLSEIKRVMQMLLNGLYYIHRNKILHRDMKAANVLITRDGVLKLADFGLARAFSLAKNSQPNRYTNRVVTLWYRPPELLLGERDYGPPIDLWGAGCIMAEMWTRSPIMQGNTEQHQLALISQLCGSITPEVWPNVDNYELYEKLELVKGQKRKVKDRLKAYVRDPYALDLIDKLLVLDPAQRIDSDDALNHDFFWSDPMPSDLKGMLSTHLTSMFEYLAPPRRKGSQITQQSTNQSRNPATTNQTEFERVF
CDK9/Cyclin T1, sequence (O60563 whole entry partner): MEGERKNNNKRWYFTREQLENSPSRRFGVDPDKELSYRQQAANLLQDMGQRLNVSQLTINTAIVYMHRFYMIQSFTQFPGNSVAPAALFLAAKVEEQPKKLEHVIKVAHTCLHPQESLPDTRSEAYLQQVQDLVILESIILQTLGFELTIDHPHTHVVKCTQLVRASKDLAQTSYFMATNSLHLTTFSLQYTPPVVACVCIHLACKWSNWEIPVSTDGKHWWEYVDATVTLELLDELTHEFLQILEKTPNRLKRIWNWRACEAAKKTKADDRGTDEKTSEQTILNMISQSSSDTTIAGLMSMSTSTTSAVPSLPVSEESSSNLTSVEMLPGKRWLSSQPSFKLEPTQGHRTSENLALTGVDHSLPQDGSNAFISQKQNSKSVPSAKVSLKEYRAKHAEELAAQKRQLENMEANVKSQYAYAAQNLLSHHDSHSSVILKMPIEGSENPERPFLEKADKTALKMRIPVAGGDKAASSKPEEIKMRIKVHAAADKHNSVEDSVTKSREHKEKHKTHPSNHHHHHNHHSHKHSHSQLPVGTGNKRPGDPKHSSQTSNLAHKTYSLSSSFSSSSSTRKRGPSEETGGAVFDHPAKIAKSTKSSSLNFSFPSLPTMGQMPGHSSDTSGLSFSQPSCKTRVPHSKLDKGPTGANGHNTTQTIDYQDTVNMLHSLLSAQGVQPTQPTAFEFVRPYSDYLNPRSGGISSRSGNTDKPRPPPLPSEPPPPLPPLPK
CDK7/CycH/Mat1, sequence (P50613 whole entry): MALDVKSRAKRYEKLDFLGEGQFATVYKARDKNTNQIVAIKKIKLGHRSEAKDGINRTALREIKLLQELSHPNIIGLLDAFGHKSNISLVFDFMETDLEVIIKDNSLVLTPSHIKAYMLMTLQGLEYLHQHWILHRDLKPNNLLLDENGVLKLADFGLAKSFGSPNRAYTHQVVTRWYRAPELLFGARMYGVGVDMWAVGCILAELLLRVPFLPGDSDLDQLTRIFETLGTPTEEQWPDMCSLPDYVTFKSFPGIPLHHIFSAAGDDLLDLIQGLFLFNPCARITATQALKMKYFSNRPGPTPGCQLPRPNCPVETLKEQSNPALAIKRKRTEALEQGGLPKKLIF

Row | IC50 (CDK9/Cyclin T1) | IC50 (CDK7/CycH/Mat1) | IC50 (CDK2/CycA) | multiplicity of the CDK9 activity in terms of the CDK7 activity (CDK9/Cyclin T1; selectivity CDK9 vs CDK7, enzymatic IC50 values) | multiplicity of the CDK2 activity in terms of the CDK7 activity (CDK2/CycA; selectivity CDK2 vs CDK7, enzymatic IC50 values) | Structure (SMILES)
1 | 500 to 2500 nM | 10 to 25 nM | 500 to 2500 nM |  |  | CC(C)c1cnn2c(NCc3ccccc3C3CC3)nc(O[C@@H]3CCCNC3)nc12 (stereo in doubt) [(VII-143), N-(2-cyclopropylbenzyl)-8-isopropyl-2-(piperidin-3-yloxy)pyrazolo[1,5-a][1,3,5]triazin-4-amine]
2 | > 2500 nM | < 5 nM | > 2500 nM |  |  | CC(C)c1cnn2c(NCc3ccccc3-n3cccn3)nc(OC3COC4(CCNCC4)C3)nc12 (stereo not shown) [(VII-05), 2-(1-oxa-8-azaspiro[4.5]decan-3-yloxy)-N-(2-(1H-pyrazol-1-yl)benzyl)-8-isopropylpyrazolo[1,5-a][1,3,5]triazin-4-amine]
3 | > 2500 nM | < 5 nM |  |  |  | CC(C)c1cnn2c(NCc3ccccc3-n3cccn3)nc(N3CCCC34CCNCC4)nc12 [(VIII-22), N-(2-(1H-pyrazol-1-yl)benzyl)-8-isopropyl-2-(1,8-diazaspiro[4.5]decan-1-yl)pyrazolo[1,5-a][1,3,5]triazin-4-amine]
4 | > 2500 nM | 5 to 10 nM |  |  |  | CC(C)c1cnn2c(NCc3ccccc3-n3cccn3)nc(N3CCC4(CCNCC4)CC3)nc12 [(VIII-26), N-(2-(1H-pyrazol-1-yl)benzyl)-8-isopropyl-2-(3,9-diazaspiro[5.5]undecan-3-yl)pyrazolo[1,5-a][1,3,5]triazin-4-amine]
5 | > 2500 nM | 5 to 10 nM |  |  |  | CC(C)c1cnn2c(NCc3ccccc3-n3cccn3)nc(N3CCC4(CCCNC4)C3)nc12 (stereo not shown) [(VIII-27), N-(2-(1H-pyrazol-1-yl)benzyl)-8-isopropyl-2-(2,7-diazaspiro[4.5]decan-2-yl)pyrazolo[1,5-a][1,3,5]triazin-4-amine]
6 | > 2500 nM | < 5 nM |  |  |  | CC(C)c1cnn2c(NCc3ccccc3-n3cccn3)nc(N3CCC34CCNC4)nc12 (stereo not shown) [(VIII-28), N-(2-(1H-pyrazol-1-yl)benzyl)-8-isopropyl-2-(1,6-diazaspiro[3.4]octan-1-yl)pyrazolo[1,5-a][1,3,5]triazin-4-amine]
7 | > 2500 nM | < 5 nM |  |  |  | CC(C)c1cnn2c(NCc3ccccc3-n3cccn3)nc(N3CCC34CCNCC4)nc12 [(VIII-34), N-(2-(1H-pyrazol-1-yl)benzyl)-8-isopropyl-2-(1,7-diazaspiro[3.5]nonan-1-yl)pyrazolo[1,5-a][1,3,5]triazin-4-amine]
8 | > 2500 nM | < 5 nM |  |  |  | CC(C)c1cnn2c(NCc3ccccc3S(=O)(=O)N(C)C)nc(N3CCC4(CCCN4)CC3)nc12 [(VIII-35), 2-(((8-isopropyl-2-(1,8-diazaspiro[4.5]decan-8-yl)pyrazolo[1,5-a][1,3,5]triazin-4-yl)amino)methyl)-N,N-dimethylbenzenesulfonamide]
9 | > 2500 nM |  | > 2500 nM |  |  | CC(C)c1cnn2c(NCc3ccccc3C(F)(F)F)nc(OC3CCN(C)CC3)nc12 [VII-058, 8-isopropyl-2-((1-methylpiperidin-4-yl)oxy)-N-(2-(trifluoromethyl)benzyl)pyrazolo[1,5-a][1,3,5]triazin-4-amine]

Second part, the compound before the results:

Row | Structure (SMILES) | IC50 (CDK9/Cyclin T1) | IC50 (CDK7/CycH/Mat1) | IC50 (CDK2/CycA) | multiplicity of the CDK9 activity in terms of the CDK7 activity (CDK9/Cyclin T1; selectivity CDK9 vs CDK7, enzymatic IC50 values) | multiplicity of the CDK2 activity in terms of the CDK7 activity (CDK2/CycA; selectivity CDK2 vs CDK7, enzymatic IC50 values)
10 | CC(C)c1cnn2c(NCc3ccccc3-n3cccn3)nc(OC3CCNCC3)nc12 [(VII-01), N-(2-(1H-pyrazol-1-yl)benzyl)-8-isopropyl-2-(piperidin-4-yloxy) pyrazolo[1,5-a][1,3,5]triazin-4-amine] | > 2500 nM | < 5 nM | 50 to 500 nM |  | 
11 | CC(C)c1cnn2c(NCc3ccccc3-n3cccn3)nc(O[C@@H]3CCNC3)nc12 [(VII-02), (R)-N-(2-(1H-pyrazol-1-yl)benzyl)-8-isopropyl-2-(pyrrolidin-3-yloxy)pyrazolo[1,5-a][1,3,5]triazin-4-amine] | 500 to 2500 nM | < 5 nM | < 50 nM |  | 
12 | CC(C)c1cnn2c(NCc3ccccc3-n3cccn3)nc(O[C@@H]3CCCNC3)nc12 [(VII-03), (R)-N-(2-(1H-pyrazol-1-yl)benzyl)-8-isopropyl-2-(piperidin-3-yloxy)pyrazolo[1,5-a][1,3,5]triazin-4-amine] | 50 to 500 nM | < 5 nM | < 50 nM |  | 
13 | CC(C)c1cnn2c(NC(C)c3ccccc3-n3cccn3)nc(O[C@@H]3CCCNC3)nc12 (stereo partly drawn) [(VII-06), N-(1-(2-(1H-pyrazol-1-yl)phenyl)ethyl)-8-isopropyl-2-((R)-piperidin-3-yloxy)pyrazolo[1,5-a][1,3,5]triazin-4-amine] | 50 to 500 nM | < 5 nM | > 2500 nM |  | 
14 | CC(C)c1cnn2c(NCc3ccccc3-c3ccccc3)nc(O[C@@H]3CCCNC3)nc12 [(VII-07), (R)-N-([1,1′-biphenyl]-2-ylmethyl)-8-isopropyl-2-(piperidin-3-yloxy)pyrazolo[1,5-a][1,3,5]triazin-4-amine] | 50 to 500 nM | < 5 nM | 500 to 2500 nM |  | 
15 | CC(C)c1cnn2c(NCc3ccccc3-c3ccccc3)nc(O[C@@H]3CCNC3)nc12 [(VII-08), (R)-N-([1,1′-biphenyl]-2-ylmethyl)-8-isopropyl-2-(pyrrolidin-3-yloxy)pyrazolo[1,5-a][1,3,5]triazin-4-amine] | 500 to 2500 nM | 5 to 10 nM | 500 to 2500 nM |  | 
16 | CC(C)c1cnn2c(NCc3ccccc3-c3ccccc3)nc(OC3CCNCC3)nc12 [(VII-09), N-([1,1′-biphenyl]-2-ylmethyl)-8-isopropyl-2-(piperidin-4-yloxy)pyrazolo[1,5-a][1,3,5]triazin-4-amine] | > 2500 nM | < 5 nM | > 2500 nM |  | 
17 | COc1ccccc1[C@H](C)Nc1nc(O[C@@H]2CCNC2)nc2c(C(C)C)cnn12 [(VII-11), 8-isopropyl-N-((S)-1-(2-methoxyphenyl)ethyl)-2-((R)-pyrrolidin-3-yloxy)pyrazolo[1,5-a][1,3,5]triazin-4-amine] | 500 to 2500 nM | 5 to 10 nM | 500 to 2500 nM |  | 
18 | CC(C)c1cnn2c(NCc3ccccc3-c3cccs3)nc(O[C@@H]3CCCNC3)nc12 [(VII-12), (R)-8-isopropyl-2-(piperidin-3-yloxy)-N-(2-(thiophen-2-yl)benzyl)pyrazolo[1,5-a][1,3,5]triazin-4-amine] | 50 to 500 nM | < 5 nM | < 50 nM |  | 
19 | Cc1nccn1-c1ccccc1CNc1nc(O[C@@H]2CCCNC2)nc2c(C(C)C)cnn12 [(VII-23), (R)-8-isopropyl-N-(2-(2-methyl-1H-imidazol-1-yl)benzyl)-2-(piperidin-3-yloxy)pyrazolo[1,5-a][1,3,5]triazin-4-amine] |  | < 5 nM | 500 to 2500 nM |  | 
20 | COc1ccccc1[C@H](C)Nc1nc(N[C@@H]2CCCNC2)nc2c(C(C)C)cnn12 [(VIII-31), 8-isopropyl-N4-((S)-1-(2-methoxyphenyl)ethyl)-N2-((R)-piperidin-3-yl)pyrazolo[1,5-a][1,3,5]triazine-2,4-diamine] | > 2500 nM | 5 to 10 nM |  |  | 
21 | CN1CC[C@H](c2c(O)cc(O)c3c(=O)cc(-c4ccccc4Cl)oc23)[C@H](O)C1 [Flavopiridol, reference compound] |  |  |  | even lower than the CDK 7 activity | even lower than the CDK 7 activity
22 | CC(C)c1cnn2c(NCc3ccccc3-n3cccn3)nc(OC3CNC3)nc12 [VII-141, N-(2-(1H-pyrazol-1-yl)benzyl)-2-(azetidin-3-yloxy)-8-isopropylpyrazolo[1,5-a][1,3,5]triazin-4-amine] | > 2500 nM |  | 500 to 2500 nM |  | 
